Consider 24 compounds from US20100197591A1, “4-AMINO-7,8-DIHYDROPYRIDO[4,3-d]PYRIMIDIN-5(6H)-ONE DERIVATIVES” (pfizer Inc, priority 2009, published 2010).

The assay addresses T1, Human full-length diacylglycerol:acylCoA acyltransferase 1 (DGAT-1) (Homo sapiens, UniProt O75907).
T1 construct: Human full-length diacylglycerol:acylCoA acyltransferase 1 (DGAT-1) was expressed in Sf9 insect cells; made in house; host or cells: Sf9 insect cells (baculovirus); crude membrane/microsome fraction
T1 sequence (O75907 1-488): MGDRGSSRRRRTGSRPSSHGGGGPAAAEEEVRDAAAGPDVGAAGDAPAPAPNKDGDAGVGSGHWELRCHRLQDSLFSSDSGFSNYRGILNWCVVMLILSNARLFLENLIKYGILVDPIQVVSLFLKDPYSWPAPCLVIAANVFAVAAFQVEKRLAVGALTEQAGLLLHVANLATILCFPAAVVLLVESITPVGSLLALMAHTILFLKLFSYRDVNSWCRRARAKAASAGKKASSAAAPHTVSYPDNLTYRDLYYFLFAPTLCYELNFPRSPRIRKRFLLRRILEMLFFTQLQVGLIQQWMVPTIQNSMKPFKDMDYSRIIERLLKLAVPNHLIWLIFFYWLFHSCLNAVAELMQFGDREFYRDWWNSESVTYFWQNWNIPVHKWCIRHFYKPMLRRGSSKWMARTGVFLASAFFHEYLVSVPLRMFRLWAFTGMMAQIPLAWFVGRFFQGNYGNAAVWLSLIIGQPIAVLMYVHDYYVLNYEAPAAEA
The assay is described as follows: DGAT-1 Reduced Microsome Multidose Assay, G7329F Human IC50. It counts as biochemical. The settings on record: crude membrane fraction of Sf9 cells expressing human DGAT-1; [14C]decanoylCoA; apparent IC50, average where tested more than once. The procedure:
Human full-length diacylglycerol:acylCoA acyltransferase 1 (DGAT-1) was expressed in Sf9 insect cells which are then lysed and a crude membrane fraction (105,000×g pellet) was prepared. The DGAT-1 gene is a human DGAT-1 gene described in J Biol Chem 273:26765 (1998) and U.S. Pat. No. 6,100,077.
In vitro inhibition of DGAT-1 was measured using a modification, further described below, of the assay methodology described in U.S. Pat. No. 6,994,956 B2.
The cells were cultured as follows. Sf9 cells (20 L) were infected with 4 mL of DGAT-1 Baculovirus Infected Insect Cells (BIIC) for 72 hours in a Wave Bioreactor System 20/50P (Wave Biotec/GE Healthcare).
Crude DGAT-1 microsomes were prepared as follows. Cell pellets were washed once with ice-cold Dulbecco's phosphate-buffered saline. Cells were collected in tabletop centrifuge (Beckman GS-6KR), 15 minutes, 2000×g, 4° C. Twenty (20) mL of ice-cold Microsome Buffer (MB) was added per 5 g of cell pellet. The suspension was passed through a microfluidizer 3 times (18K psi). The lysate was transferred to centrifuge tubes and centrifuged for 20 minutes at 5000×g (Beckman-Coulter, Inc. Allegra® 64R High-Speed Refrigerated Benchtop Centrifuge, F0650 rotor) at 4° C. The supernatant was transferred to ultracentrifuge tubes and centrifuged at 125,000×g for 1 hour in a Beckman Ti-45 rotor, 4° C. The supernatant fluid was discarded. The pellet was resuspended in 70 mL of MB by sonication. The microsome concentration was determined using Bio-Rad Protein DC Protein Assay. The microsomes were filter sterilized with a 0.22 μm filter. The samples were portioned, flash frozen and stored at −80° C.
The Microsome Buffer, used for microsome preparation, was prepared by conventional means and contained 125 mM sucrose, 3 mM imidazole, 0.2 μg/mL aprotinin, 0.2 μg/mL leupeptin and 5 mM dithiothreitol (Cleland's reagent), DGAT-1 activity was measured in 384-well format in a total assay volume of 25 μl that contained, Hepes buffer (50 mM, pH 7.5), MgCl2 (10 mM), bovine serum albumin (0.6 mg/ml), [^14C]decanoylCoA (20 μM, 58 Ci/mol) and membranes (25 μg/ml) into which 1,2 dioleoyl-sn-glycerol (75 μM) in acetone has already been incorporated. Inhibitors in DMSO were pre-incubated with membranes before initiating the DGAT-1 reaction by the addition of decanoylCoA. […] The DMSO concentration was 2.5%. The inhibitors were present at a range of eight concentrations to generate an apparent IC50 for each compound. The eight inhibitor concentration employed ranged from 10 μM to 3 nM (from high to low concentration). Specifically, the eight concentrations used were 10 μM, 3 μM, 1 μM, 300 nM, 100 nM, 30 nM, 10 nM and 3 nM.
Reaction mixtures were neutralized by the addition of 15 μl of tris(hydroxy-methyl)aminomethane (1M, pH 8.0) and then mixed by trituration with 37.5 μl of Microscint™-E (Perkin Elmer). Plates contents were allowed to partition for 15 to 30 min before ^14C was measured in a scintillation spectrometer (Wallac Microbeta Trilux 1450-030 liquid scintillation counter 12 detector in the top-count DPM mode). Percent inhibition of test compounds was computed as […].
Four separate assays were performed using 4 different methods of analysis. The method of analysis of Assay 1 was the same as Assay 4 (described above) except microsomes were utilized at 25 μg/mL instead of 5 μg/mL. The method of analysis of Assay 2 was the same as Assay 4 (described above) except eleven (11) concentrations of inhibitor were employed instead of eight (8). The method of analysis of Assay 3 was the same as Assay 2 except the compounds were serially diluted in a different laboratory.
Where this DGAT-1 inhibition assay was performed on a compound more than once, an average is provided for that compound.
As a reminder, the IC50 is the point on the concentration scale where inhibition reaches its midpoint. Consider `CC(C)(C)c1ccc(N2CCc3ncnc(N)c3C2=O)cc1` [Example 11A, 4-amino-6-(4-tert-butylphenyl)-7,8-dihydropyrido[4,3-d]pyrimidin-5(6H)-one], for which the IC50 worked out at 117 nM.

On to `COc1nc(N)c2c(n1)CCN(c1ccc(C(C)(C)O)cc1)C2=O` [Example 2B, 4-amino-6-[4-(1-hydroxy-1-methylethyl)phenyl]-2-methoxy-7,8-dihydropyrido[4,3-d]pyrimidin-5(6H)-one], for which the IC50 was 177 nM.

Turning to `COc1nc(N)c2c(n1)CCN(c1ccc(C(C)C)cc1F)C2=O` [Example 6G, 4-amino-6-(2-fluoro-4-isopropylphenyl)-2-methoxy-7,8-dihydropyrido[4,3-d]pyrimidin-5(6H)-one], the IC50 was 19.8 nM.

With `COc1nc(N)c2c(n1)CCN(c1ccc(C(OC)C(C)(C)C)cc1)C2=O` (stereo not drawn) [Example 10D, 4-amino-2-methoxy-6-[4-(1-methoxy-2,2-dimethylpropyl)phenyl]-7,8-dihydropyrido[4,3-d]pyrimidin-5(6H)-one], the IC50 was 27.9 nM.

Take `COc1nc(N)c2c(n1)CCN(c1ccc(C(C)(C)NC(C)=O)cc1)C2=O` [Example 8A, N-{1-[4-(4-amino-2-methoxy-5-oxo-7,8-dihydropyrido[4,3-d]pyrimidin-6(5H)-yl)phenyl]-1-methylethyl}acetamide]: the IC50 is 1570 nM.

As for `COc1nc(N)c2c(n1)CCN(c1cccc(C(C)C)c1)C2=O` [Example 6B, 4-amino-6-(3-isopropylphenyl)-2-methoxy-7,8-dihydropyrido[4,3-d]pyrimidin-5(6H)-one], the IC50 was 873 nM.

On to `COc1nc(N)c2c(n1)CCN(c1ccc(C(C)(C)c3ncnn3C)cc1)C2=O` [Example 3K, 4-amino-2-methoxy-6-{4-[1-methyl-1-(1-methyl-1H-1,2,4-triazol-5-yl)ethyl]phenyl}-7,8-dihydropyrido[4,3-d]pyrimidin-5(6H)-one], for which the IC50 turned out to be 795 nM.

As to `COc1nc(N)c2c(n1)CCN(c1ccc(C(C)(C)c3nc(C)no3)cc1)C2=O` [Example 3F, 4-amino-2-methoxy-6-{4-[1-methyl-1-(3-methyl-1,2,4-oxadiazol-5-yl)ethyl]phenyl}-7,8-dihydropyrido[4,3-d]pyrimidin-5(6H)-one], the IC50 was 51.5 nM.

Turning to `COc1nc(N)c2c(n1)CCN(c1cccc(C(C)(C)C)c1)C2=O` [Example 6C, 4-amino-6-(3-tert-butylphenyl)-2-methoxy-7,8-dihydropyrido[4,3-d]pyrimidin-5(6H)-one], the IC50 was determined as 37.7 nM.

For `COc1nc(N)c2c(n1)CCN(c1ccc(CC3CC3)cc1)C2=O` [Example 1C, 4-amino-6-[4-(cyclopropylmethyl)phenyl]-2-methoxy-7,8-dihydropyrido[4,3-d]pyrimidin-5(6H)-one], the IC50 came to 11 nM.

Take `COc1nc(N)c2c(n1)CCN(c1ccc(C(O)C(F)(F)F)cc1)C2=O` (stereo not drawn) [Example 1Y, 4-amino-2-methoxy-6-[4-(2,2,2-trifluoro-1-hydroxyethyl)phenyl]-7,8-dihydropyrido[4,3-d]pyrimidin-5(6H)-one]: the IC50 turned out to be 46 nM.

Consider `COc1nc(N)c2c(n1)CCN(c1ccc(SC(C)(C)C)cc1)C2=O` [Example 9N, 4-amino-6-[4-(tert-butylthio)phenyl]-2-methoxy-7,8-dihydropyrido[4,3-d]pyrimidin-5(6H)-one], for which the IC50 came to 23.9 nM.

Consider `COc1nc(N)c2c(n1)CCN(c1ccc3nc[nH]c3c1)C2=O` [Example 9J, 4-amino-6-(1H-benzimidazol-6-yl)-2-methoxy-7,8-dihydropyrido[4,3-d]pyrimidin-5(6H)-one], for which the IC50 turned out to be 1400 nM.

For the compound `COc1nc(N)c2c(n1)CCN(c1ccc3c(c1)OCCO3)C2=O` [Example 9B, 4-amino-6-(2,3-dihydro-1,4-benzodioxin-6-yl)-2-methoxy-7,8-dihydropyrido[4,3-d]pyrimidin-5(6H)-one], the IC50 was 104 nM.

Regarding `CCOc1nc(N)c2c(n1)CCN(c1ccc(C(C)(C)C)cc1)C2=O` [Example 6D, 4-amino-6-(4-tert-butylphenyl)-2-ethoxy-7,8-dihydropyrido[4,3-d]pyrimidin-5(6H)-one], the IC50 was 899 nM.

As to `COc1nc(N)c2c(n1)CCN(c1ccc(C(C)(C)C(=O)O)cc1)C2=O` [Example 3D, 2-[4-(4-amino-2-methoxy-5-oxo-7,8-dihydropyrido[4,3-d]pyrimidin-6(5H)-yl)phenyl]-2-methylpropanoic acid], the IC50 turned out to be 46.2 nM.

In the case of `COc1nc(N)c2c(n1)CCN(c1ccccc1)C2=O` [Example 9C, 4-amino-2-methoxy-6-phenyl-7,8-dihydropyrido[4,3-d]pyrimidin-5(6H)-one], the IC50 stood at 594 nM.

For the compound `COc1nc(N)c2c(n1)CCN(c1ccc(OCC(C)C)cc1)C2=O` [Example 9I, 4-amino-6-(4-isobutoxyphenyl)-2-methoxy-7,8-dihydropyrido[4,3-d]pyrimidin-5(6H)-one], the IC50 amounted to 84.1 nM.

In the case of `COc1nc(N)c2c(n1)CCN(c1ccc(C(C)(C)CO)cc1)C2=O` [Example 1T, 4-amino-6-[4-(2-hydroxy-1,1-dimethylethyl)phenyl]-2-methoxy-7,8-dihydropyrido[4,3-d]pyrimidin-5(6H)-one], the IC50 is 52.9 nM.

Take `COc1nc(N)c2c(n1)CCN(c1ccc(C(=O)O)cc1)C2=O` [Example 2E, 4-(4-amino-2-methoxy-5-oxo-7,8-dihydropyrido[4,3-d]pyrimidin-6(5H)-yl)benzoic acid]: the IC50 was 1480 nM.

On to `COc1nc(N)c2c(n1)CCN(c1ccc(CCC(F)(F)F)cc1)C2=O` [Example 9L, 4-amino-2-methoxy-6-[4-(3,3,3-trifluoropropyl)phenyl]-7,8-dihydropyrido[4,3-d]pyrimidin-5(6H)-one], for which the IC50 came out at 77.4 nM.

On to `COc1nc(N)c2c(n1)CCN(c1ccc(C3(C)CCCO3)cc1)C2=O` (stereo not drawn) [Example 9K, 4-amino-2-methoxy-6-[4-(2-methyltetrahydrofuran-2-yl)phenyl]-7,8-dihydropyrido[4,3-d]pyrimidin-5(6H)-one], for which the IC50 worked out at 63.2 nM.

As to `COc1nc(N)c2c(n1)CCN(c1ccc(C(C)C)c(F)c1)C2=O` [Example 1G, 4-amino-6-(3-fluoro-4-isopropylphenyl)-2-methoxy-7,8-dihydropyrido[4,3-d]pyrimidin-5(6H)-one], the IC50 is 9.66 nM.

In the case of `COc1nc(N)c2c(n1)CCN(c1ccc([C@H]3C[C@@H](O)C3)cc1)C2=O` [Example 1J, 4-amino-6-[4-(cis-3-hydroxycyclobutyl)phenyl]-2-methoxy-7,8-dihydropyrido[4,3-d]pyrimidin-5(6H)-one], the IC50 is 59.8 nM.
